# Experimental data as given in PubChem BioAssay AID330 (DTP/NCI, 2004).
# Several values for one entry are separate records, joined by “and”; a condition that tells them apart may be missing. Equal values may be shown once. Inconclusive results and toxic doses are left out.
# Tested on: P388 leukemia ip, CD2F1 mice, survival T/C
# Assay: NCI In Vivo Anticancer Drug Screen. Data for tumor model P388 Leukemia (intraperitoneal) in CD2F1 (CDF1) mice
# Details: endpoint: median survival time, higher = longer survival
# Outline: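 Mice carrying the transplanted tumor received test compound or vehicle. Survival was recorded in each group, and the value is the treated-group measurement divided by that of the vehicle-treated control group.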
# [1] = dose: 100.0 mg/kg/injection, schedule: Q01DX009 (ip), vehicle: saline
# [2] = dose: 100.0 mg/kg/injection, schedule: Q04DX003 (ip), vehicle: saline
# [3] = dose: 6.25 mg/kg/injection, schedule: Q01DX009 (ip), vehicle: other
# [4] = dose: 25.0 mg/kg/injection, schedule: Q04DX003 (ip), vehicle: saline
# [5] = dose: 50.0 mg/kg/injection, schedule: Q04DX003 (ip), vehicle: saline
# [6] = dose: 60.0 mg/kg/injection, schedule: Q01DX005 (ip), vehicle: saline with Tween-80
# [7] = dose: 120.0 mg/kg/injection, schedule: Q01DX005 (ip), vehicle: saline with Tween-80
# [8] = dose: 240.0 mg/kg/injection, schedule: Q01DX005 (ip), vehicle: saline with Tween-80
# [9] = dose: 100.0 mg/kg/injection, schedule: Q04DX003 (ip), vehicle: Klucel (hydroxypropylcellulose) (HPC)
# [10] = dose: 200.0 mg/kg/injection, schedule: Q04DX003 (ip), vehicle: Klucel (hydroxypropylcellulose) (HPC)
smiles,measurement,setting,value
CN(C)CNC(=O)c1ccccc1,T/C,"dose: 1.25 mg/kg/injection, schedule: Q01DX009 (ip), vehicle: water",99 % of control
same,T/C,"dose: 2.5 mg/kg/injection, schedule: Q01DX009 (ip), vehicle: water",121 % of control
same,T/C,"dose: 5.0 mg/kg/injection, schedule: Q01DX009 (ip), vehicle: water",99 % of control
same,T/C,"dose: 10.0 mg/kg/injection, schedule: Q01DX009 (ip), vehicle: water",100 % of control
same,T/C,"dose: 20.0 mg/kg/injection, schedule: Q01DX009 (ip), vehicle: water",99 % of control
O=S(=O)(O)c1cncc(S(=O)(=O)O)n1,T/C,[1],110 % of control
same,T/C,[2],100 % of control
same,T/C,"dose: 200.0 mg/kg/injection, schedule: Q01DX009 (ip), vehicle: saline",105 % of control
same,T/C,"dose: 200.0 mg/kg/injection, schedule: Q04DX003 (ip), vehicle: saline",104 % of control
same,T/C,"dose: 400.0 mg/kg/injection, schedule: Q01DX009 (ip), vehicle: saline",100 % of control
same,T/C,"dose: 400.0 mg/kg/injection, schedule: Q04DX003 (ip), vehicle: saline",100 % of control
O=C1CCc2cc([N+](=O)[O-])cc3c2N1CCC3,T/C,"dose: 50.0 mg/kg/injection, schedule: Q01DX005 (ip), vehicle: Klucel (hydroxypropylcellulose) (HPC)",95 % of control and 96 % of control
same,T/C,"dose: 100.0 mg/kg/injection, schedule: Q01DX005 (ip), vehicle: Klucel (hydroxypropylcellulose) (HPC)",104 % of control
same,T/C,"dose: 200.0 mg/kg/injection, schedule: Q01DX005 (ip), vehicle: Klucel (hydroxypropylcellulose) (HPC)",98 % of control and 96 % of control
COc1ccc(OC)c2c1CCC(O)(C#N)C2 (stereo not drawn),T/C,"dose: 3.13 mg/kg/injection, schedule: Q01DX009 (ip), vehicle: other",100 % of control and 101 % of control
same,T/C,[3],100 % of control and 102 % of control
same,T/C,"dose: 12.5 mg/kg/injection, schedule: Q01DX009 (ip), vehicle: other",101 % of control
CC[n+]1ccc(Nc2ccc(NC(=O)c3ccc(Nc4cc[n+](CC)c5ccc([N+](=O)[O-])cc45)cc3)cc2)cc1,T/C,"dose: 11.0 mg/kg/injection, schedule: Q01DX009 (ip), vehicle: Klucel (hydroxypropylcellulose) (HPC)",162 % of control and 200 % of control
same,T/C,"dose: 16.0 mg/kg/injection, schedule: Q01DX009 (ip), vehicle: Klucel (hydroxypropylcellulose) (HPC)",215 % of control
same,T/C,"dose: 16.5 mg/kg/injection, schedule: Q01DX009 (ip), vehicle: Klucel (hydroxypropylcellulose) (HPC)",226 % of control
same,T/C,"dose: 22.0 mg/kg/injection, schedule: Q04DX003 (ip), vehicle: saline",175 % of control
same,T/C,"dose: 24.0 mg/kg/injection, schedule: Q01DX009 (ip), vehicle: Klucel (hydroxypropylcellulose) (HPC)",200 % of control
same,T/C,[4],154 % of control
same,T/C,"dose: 33.0 mg/kg/injection, schedule: Q04DX003 (ip), vehicle: saline",175 % of control
same,T/C,[5],180 % of control
COc1nc2ccccc2c2ccnn12,T/C,"dose: 4.0 mg/kg/injection, schedule: Q01DX009 (ip), vehicle: saline with Tween-80",106 % of control
same,T/C,"dose: 8.0 mg/kg/injection, schedule: Q01DX009 (ip), vehicle: saline with Tween-80",106 % of control
same,T/C,"dose: 16.0 mg/kg/injection, schedule: Q01DX009 (ip), vehicle: saline with Tween-80",109 % of control
C[Si](C)(C)C1OC1[Si](C)(C)C (stereo not drawn),T/C,"dose: 50.0 mg/kg/injection, schedule: Q04DX002 (ip), vehicle: other",103 % of control
same,T/C,"dose: 100.0 mg/kg/injection, schedule: Q04DX002 (ip), vehicle: other",105 % of control
same,T/C,"dose: 200.0 mg/kg/injection, schedule: Q04DX002 (ip), vehicle: other",108 % of control
C=C1C(=O)O[C@H]2[C@H]1[C@@H](OC(=O)C=C(C)C)CC1=C[C@@H](C[C@@]3(C)O[C@@H]23)OC1=O,T/C,"dose: 12.5 mg/kg/injection, schedule: Q01DX009 (ip), vehicle: saline",92 % of control
same,T/C,"dose: 25.0 mg/kg/injection, schedule: Q01DX009 (ip), vehicle: saline",100 % of control
same,T/C,"dose: 50.0 mg/kg/injection, schedule: Q01DX009 (ip), vehicle: saline",99 % of control
same,T/C,[1],101 % of control
Cc1cc(O[Si](C)(C)C)nc(O[Si](C)(C)C)n1,T/C,[6],106 % of control
same,T/C,[7],110 % of control
same,T/C,[8],105 % of control
CCNC1CC(C)(O)Cc2cc3c(c(O)c21)C(=O)c1c(O)cc2c(c1C3=O)OC1OC2(C)C(O)C(N(C)C)C1O (stereo not drawn),T/C,[3],123 % of control
same,T/C,"dose: 25.0 mg/kg/injection, schedule: Q01DX009 (ip), vehicle: other",154 % of control
same,T/C,"dose: 50.0 mg/kg/injection, schedule: Q01DX009 (ip), vehicle: other",120 % of control
CCOC(=O)c1ccc(NC(=S)Nc2ccc(C(=O)OCC)cc2)cc1,T/C,"dose: 100.0 mg/kg/injection, schedule: Q01DX009 (ip), vehicle: saline with Tween-80",90 % of control
same,T/C,"dose: 200.0 mg/kg/injection, schedule: Q01DX009 (ip), vehicle: saline with Tween-80",90 % of control
same,T/C,"dose: 400.0 mg/kg/injection, schedule: Q01DX009 (ip), vehicle: saline with Tween-80",90 % of control
CSC(SC)=C(C#N)C#N,T/C,[4],104 % of control
same,T/C,[5],105 % of control
same,T/C,[2],108 % of control
O=c1c2cc(Cl)ccc2on1CN1CCOCC1,T/C,"dose: 50.0 mg/kg/injection, schedule: Q01DX005 (ip), vehicle: saline with Tween-80",111 % of control
same,T/C,"dose: 100.0 mg/kg/injection, schedule: Q01DX005 (ip), vehicle: saline with Tween-80",118 % of control
same,T/C,"dose: 200.0 mg/kg/injection, schedule: Q01DX005 (ip), vehicle: saline with Tween-80",111 % of control
O=c1oc2c(c(N(c3ccccc3)c3ccccc3)c1Cl)Cc1ccccc1CC2,T/C,"dose: 50.0 mg/kg/injection, schedule: Q04DX003 (ip), vehicle: Klucel (hydroxypropylcellulose) (HPC)",95 % of control
same,T/C,[9],92 % of control
same,T/C,[10],91 % of control
COC(=O)C1c2cc(OC)c(OC)cc2C(=O)N2CCc3cc4c(cc3C12)OCO4 (stereo not drawn),T/C,"dose: 50.0 mg/kg/injection, schedule: Q04DX003 (ip), vehicle: distilled water + Tween-80",100 % of control and 101 % of control
same,T/C,"dose: 100.0 mg/kg/injection, schedule: Q04DX003 (ip), vehicle: distilled water + Tween-80",99 % of control and 105 % of control
same,T/C,"dose: 200.0 mg/kg/injection, schedule: Q04DX003 (ip), vehicle: distilled water + Tween-80",97 % of control and 101 % of control
same,T/C,"dose: 400.0 mg/kg/injection, schedule: Q04DX003 (ip), vehicle: distilled water + Tween-80",104 % of control and 100 % of control
CCCCC1(CC)COC(C)(c2ccccc2)OC1 (stereo not drawn),T/C,"dose: 75.0 mg/kg/injection, schedule: Q01DX009 (ip), vehicle: saline",112 % of control
same,T/C,"dose: 150.0 mg/kg/injection, schedule: Q01DX009 (ip), vehicle: saline",110 % of control
same,T/C,"dose: 300.0 mg/kg/injection, schedule: Q01DX009 (ip), vehicle: saline",108 % of control
Cc1ccc(-c2cn3nc(-c4ccc5c(c4)OCO5)sc3n2)cc1,T/C,[6],92 % of control
same,T/C,[7],99 % of control and 89 % of control
same,T/C,[8],87 % of control
Clc1ccc(CN2COc3c(cc(Cl)c4cccnc34)C2)c(Cl)c1,T/C,[9],102 % of control
same,T/C,[10],87 % of control
same,T/C,"dose: 400.0 mg/kg/injection, schedule: Q04DX003 (ip), vehicle: Klucel (hydroxypropylcellulose) (HPC)",87 % of control
CCOC(=O)C(Cc1ccc(N(CCCl)CCCl)cc1)NC(=O)C(N)CCC(=O)O (stereo not drawn),T/C,"dose: 5.0 mg/kg/injection, schedule: Q04DX003 (ip), vehicle: water",166 % of control
same,T/C,"dose: 6.25 mg/kg/injection, schedule: Q01DX009 (ip), vehicle: Klucel (hydroxypropylcellulose) (HPC)",169 % of control
same,T/C,"dose: 10.0 mg/kg/injection, schedule: Q04DX003 (ip), vehicle: water",161 % of control and 196 % of control
same,T/C,"dose: 12.5 mg/kg/injection, schedule: Q01DX009 (ip), vehicle: Klucel (hydroxypropylcellulose) (HPC)",202 % of control and 247 % of control
same,T/C,"dose: 20.0 mg/kg/injection, schedule: Q04DX003 (ip), vehicle: water",233 % of control and 321 % of control
same,T/C,"dose: 25.0 mg/kg/injection, schedule: Q01DX009 (ip), vehicle: Klucel (hydroxypropylcellulose) (HPC)",196 % of control
same,T/C,"dose: 40.0 mg/kg/injection, schedule: Q04DX003 (ip), vehicle: water",122 % of control and 348 % of control
same,T/C,"dose: 50.0 mg/kg/injection, schedule: Q01DX009 (ip), vehicle: Klucel (hydroxypropylcellulose) (HPC)",92 % of control
C[n+]1c(-c2cc(Cl)cc(Cl)c2)c2cc(N)ccc2c2ccccc21,T/C,"dose: 3.13 mg/kg/injection, schedule: Q01DX009 (ip), vehicle: water",120 % of control
same,T/C,"dose: 6.25 mg/kg/injection, schedule: Q01DX009 (ip), vehicle: water",122 % of control
same,T/C,"dose: 12.5 mg/kg/injection, schedule: Q01DX009 (ip), vehicle: water",114 % of control
same,T/C,"dose: 25.0 mg/kg/injection, schedule: Q01DX009 (ip), vehicle: water",102 % of control
